Marks after values point to notes of the source that are not given here.
Legend:
[1] = tested on: fibroblasts from patients affected by different lysosomal storage diseases; test: Determination of lysosomal exocytosis (β-hexosaminidase activity in the culture medium); type: cell-based, human; conditions: vs untreated
Description: (§1) Fibroblasts from thirteen patients affected by seven different lysosomal storage diseases (Fabry, Gaucher, Hurler, Niemann-Pick type A/B, Sanfilippo A, Sanfilippo B and Tay-Sachs) were cultured in DMEM (Dulbecco's modified Eagles medium) with 10% fetal bovine serum and in the presence of antibiotics (penicillin and streptomycin), at 37° C. with 5% CO2. All reagents were purchased from PAA Laboratories (Velizy-Villacoublay, France). The fibroblasts of the patients were selected on the basis of availability of fibroblasts and measurable residual activity. The use of human samples was approved by the Ethical Committee of Hospital Clinic, Barcelona
Fibroblasts cultured for 72 h in 24 well-plates in the presence or absence of bicalutamide, (S)-bicalutamide, (S)-bicalutamide analogs or (R)-bicalutamide at different concentrations in triplicate (10 nmol/L, 100 nmol/L, 1 μmol/L, 10 μmol/L, 50 μmol/L and 100 μmol/L), were rinsed with physiological saline. The cells were lysed by using 3 freeze-thaw cycles. Then protein concentration was determined by using the Lowry method. Protein lysates (10 μg) were seeded in 96-well plates and the enzymatic activity of the enzyme involved in each disease was determined in triplicate by means of fluorimetric artificial substrates: 4-methylumbelliferyl-α-N-sulphoglucosaminide for Sanfilippo A, 4-methylumbelliferyl-2-acetamido-2 deoxy-α-D-glucopyranoside for Sanfilippo B, 4-methylumbelliferyl-α-L-iduronide for Hurler, 4-methylumbelliferyl-N-acetyl-β-D-glucosaminide for Tay-sachs, 4-methylumbelliferyl-β-D-glucopyranoside for Gaucher, 4-methylumbelliferyl-α-Galactopiranosid for Fabry disease, and 6-hexadecanoylamino-4-methylumbelliferyl-P-colline for Niemann-Pick type AB. The activity of the enzyme β-hexosaminidase was assayed by using 4-methylumbelliferyl-2 acetamido-2 deoxy-β-D-glucopyranoside as artificial substrate [Annunziata et al., Study of influence of sex and age on human serum lysosomal enzymes by using 4-methylumbelliferyl substrates. Clin. Chim. Acta.
Lysosomal exocytosis was monitorized by measuring the enzymatic activity of the lysosomal enzyme β-hexosaminidase in the culture medium [Xu M, et al, δ-Tocopherol reduces lipid accumulation in Niemann-Pick type C1 and Wolman cholesterol storage disorders. […] The fibroblasts were previously treated with different concentrations of bicalutamide, (S)-bicalutamide or (R)-bicalutamide (10 nmol/L, 100 nmol/L, 1 μmol/L, 10 μmol/L, 50 μmol/L and 100 μmol/L) in triplicate in 24-well plates. At 0, 24, 48 and 72 hours, 30 μL of culture medium was aliquoted for the subsequent β-hexosaminidase activity assay.
Fibroblasts from two patients affected by Sanfilippo B and Hurler diseases were treated with different concentrations of bicalutamide (racemic mixture at increasing concentrations of 0.01, 0.1, 1, 10 and 100 μM). And the increase in lysosomal exocytosis was determined by analyzing the enzymatic activity of the lysosomal enzyme β-hexosaminidase in the culture medium.
Fibroblasts from thirteen patients affected by different lysosomal storage diseases (four Sanfilippo B disease patients with different genotypes, three Sanfilippo A disease patients with different genotypes, two Tay-Sachs disease patients with the same genotype, one Gaucher disease patient, one Niemann-pick type A/B disease patient, one Hurler disease patient, and one Fabry disease patient) were independently treated with different concentrations of (R)- and (S)-bicalutamide (50 and 100 μM) for 72 hours.

[2] = tested on: fibroblasts from patients affected by different lysosomal storage diseases; test: Determination of glycosaminoglycans (GAGs), 1,9-dimethylmethylene blue (DMB) assay; type: cell-based, human; conditions: vs untreated
Description: as §1
Glycobiology. […] The fibroblasts were cultured in triplicate in 6-well plates and they were harvested 72 hours after treatment. DMB absorbance was measured in duplicate at 656 nm with a microplate reader (POLARstar Omega, BMG LABTECH, Offenburg, Germany).
Fibroblasts from three patients affected by Sanfilippo B disease and one patient affected by Hurler disease were treated with increasing concentrations of bicalutamide (racemic mixture at increasing concentrations of 0.01, 0.1, 1, 10 and 100 μM). Glycosaminoglycans (GAGs) levels were quantified with the 1,9-dimethylmethylene blue (DMB) assay.
Fibroblasts from seven patients affected by different diseases derived from lysosomal storage (three Sanfilippo B disease patients with different genotypes, one Sanfilippo A disease patient, one Tay-Sachs disease patient, one Niemann-Pick type A/B disease patient and one Hurler disease patient) were independently treated with different concentrations of (R)- and (S)-bicalutamide (50 and 100 μM).

CC(O)(CS(=O)(=O)c1ccc(F)cc1)C(=O)Nc1ccc(C#N)c(C(F)(F)F)c1 (racemic) [Racemic Bicalutamide]
Increase in lysosomal Exocytosis (%) ([1]; Table 1 patient 1, Sanfilippo B fibroblasts, 10 nM): 31* % | Increase in lysosomal Exocytosis (%) ([1]; Table 1 patient 1, Sanfilippo B fibroblasts, 100 nM): 23* % | Increase in lysosomal Exocytosis (%) ([1]; Table 1 patient 1, Sanfilippo B fibroblasts, 1 μM): 49% | Increase in lysosomal Exocytosis (%) ([1]; Table 1 patient 1, Sanfilippo B fibroblasts, 10 μM): 45% | Increase in lysosomal Exocytosis (%) ([1]; Table 1 patient 1, Sanfilippo B fibroblasts, 100 μM): 100* % | Increase in lysosomal Exocytosis (%) ([1]; Table 1 patient 2, Hurler fibroblasts, 10 nM): 14% | Increase in lysosomal Exocytosis (%) ([1]; Table 1 patient 2, Hurler fibroblasts, 100 nM): 13% | Increase in lysosomal Exocytosis (%) ([1]; Table 1 patient 2, Hurler fibroblasts, 1 μM): 9% | Increase in lysosomal Exocytosis (%) ([1]; Table 1 patient 2, Hurler fibroblasts, 10 μM): 3% | Increase in lysosomal Exocytosis (%) ([1]; Table 1 patient 2, Hurler fibroblasts, 100 μM): 8% | Increase in lysosomal Exocytosis (%) ([1]; Table 1 patient 3, Control fibroblasts, 10 nM): 0% | Increase in lysosomal Exocytosis (%) ([1]; Table 1 patient 3, Control fibroblasts, 100 nM): 27% | Increase in lysosomal Exocytosis (%) ([1]; Table 1 patient 3, Control fibroblasts, 1 μM): 13% | Increase in lysosomal Exocytosis (%) ([1]; Table 1 patient 3, Control fibroblasts, 10 μM): 12* % | Increase in lysosomal Exocytosis (%) ([1]; Table 1 patient 3, Control fibroblasts, 100 μM): 13* % | Decrease of GAGs (%) ([2]; Table 2 patient 1, Sanfilippo B fibroblasts, 10 nM): 17% | Decrease of GAGs (%) ([2]; Table 2 patient 1, Sanfilippo B fibroblasts, 100 nM): 25% | Decrease of GAGs (%) ([2]; Table 2 patient 1, Sanfilippo B fibroblasts, 1 μM): 17% | Decrease of GAGs (%) ([2]; Table 2 patient 1, Sanfilippo B fibroblasts, 10 μM): 22* % | Decrease of GAGs (%) ([2]; Table 2 patient 1, Sanfilippo B fibroblasts, 100 μM): 54* % | Decrease of GAGs (%) ([2]; Table 2 patient 2, Sanfilippo B fibroblasts, 10 nM): 0% | Decrease of GAGs (%) ([2]; Table 2 patient 2, Sanfilippo B fibroblasts, 100 nM): 16% | Decrease of GAGs (%) ([2]; Table 2 patient 2, Sanfilippo B fibroblasts, 1 μM): 0% | Decrease of GAGs (%) ([2]; Table 2 patient 2, Sanfilippo B fibroblasts, 10 μM): 0% | Decrease of GAGs (%) ([2]; Table 2 patient 2, Sanfilippo B fibroblasts, 100 μM): 20% | Decrease of GAGs (%) ([2]; Table 2 patient 3, Sanfilippo B fibroblasts, 10 nM): 53% | Decrease of GAGs (%) ([2]; Table 2 patient 3, Sanfilippo B fibroblasts, 100 nM): 13% | Decrease of GAGs (%) ([2]; Table 2 patient 3, Sanfilippo B fibroblasts, 1 μM): 33% | Decrease of GAGs (%) ([2]; Table 2 patient 3, Sanfilippo B fibroblasts, 10 μM): 33% | Decrease of GAGs (%) ([2]; Table 2 patient 3, Sanfilippo B fibroblasts, 100 μM): 0% | Decrease of GAGs (%) ([2]; Table 2 patient 4, Hurler fibroblasts, 10 nM): 0% | Decrease of GAGs (%) ([2]; Table 2 patient 4, Hurler fibroblasts, 100 nM): 0% | Decrease of GAGs (%) ([2]; Table 2 patient 4, Hurler fibroblasts, 1 μM): 0% | Decrease of GAGs (%) ([2]; Table 2 patient 4, Hurler fibroblasts, 10 μM): 0% | Decrease of GAGs (%) ([2]; Table 2 patient 4, Hurler fibroblasts, 100 μM): 0% | Decrease of GAGs (%) ([2]; Table 2 patient 5, Control fibroblasts, 10 nM): 0% | Decrease of GAGs (%) ([2]; Table 2 patient 5, Control fibroblasts, 100 nM): 0% | Decrease of GAGs (%) ([2]; Table 2 patient 5, Control fibroblasts, 1 μM): 0% | Decrease of GAGs (%) ([2]; Table 2 patient 5, Control fibroblasts, 10 μM): 0% | Decrease of GAGs (%) ([2]; Table 2 patient 5, Control fibroblasts, 100 μM): 0%

Source: patent US11571407B2, “Bicalutamide analogs or (S)-bicalutamide as exocytosis activating compounds for use in the treatment of a lysosomal storage disorder or glycogenosis” (BCN PEPTIDES, S.A., priority 2013, dated 2023)
